For assay [1], the system named is Mus musculus. In words: Anxiolytic activity of ICR mouse assessed as increase in time spent in open arms at 1.0 mg/kg, ip by EPM test relative to control. The class given is functional, organism-based. The arrangement: dose 1 mg/kg.
The test system of assay [2] is Mus musculus. Briefly: Anticonvulsant effect in ICR mouse assessed as mortality protection against pentylenetetrazole-induced seizures at 1.0 mg/kg, ip relative to control. The class given is functional, organism-based. The arrangement: dose 1 mg/kg.
Assay [3] has as its system Ileum. In words: Relaxation of spontaneous contractions of isolated rat ileum relative to control. Format: functional, tissue-based.
In assay [4] the test system is Ileum. In words: Relaxation of spontaneous contractions of isolated rat ileum at 250 ug/mL relative to control. The class given is functional.
In assay [5] the test system is Mus musculus. Briefly: Anticonvulsant effect in ICR mouse assessed as mortality protection against pentylenetetrazole-induced seizures at 40 mg/kg, ip relative to control. Format: functional. Particulars: route intraperitoneal.
The test system of assay [6] is Mus musculus. Briefly: Anxiolytic activity of ICR mouse at 10 mg/kg, ip by EPM test relative to control. Format: functional, organism-based. The arrangement: dose 10 mg/kg.
The test system of assay [7] is Mus musculus. Briefly: Anticonvulsant effect in ICR mouse assessed as mortality protection against pentylenetetrazole-induced seizures at 10 mg/kg, ip relative to control. Format: functional. Particulars: route intraperitoneal.
In assay [8] the test system is Mus musculus. Briefly: Antidepressant activity in ICR mouse assessed as diminution of immobility time at 10 mg/kg, ip by forced swimming test relative to control. Format: functional, organism-based. Details: dose 10 mg/kg.

The source made the active and inactive calls. No cut-off for these calls is given here.

The results in this text go back to ChEMBL document CHEMBL1142106, “Resin glycosides from the roots of Ipomoea tyrianthina and their biological activity” (2007).

As for `CN1C(=O)CN=C(c2ccccc2)c2cc(Cl)ccc21`, the result in the assay on Mus musculus [1] and in the assay with Mus musculus [2] was Active.
In the case of `C/C=C(\C)C(=O)O[C@H]1[C@H](O)[C@@H](O)[C@H](O[C@@H]2[C@H]3OC(=O)CCCCCCCCCC(CCCCC)O[C@@H]4O[C@H](C)[C@@H](O)[C@H](O)[C@H]4O[C@@H]4O[C@H](CO)[C@@H](O)[C@H](O)[C@H]4O[C@H](O[C@H]2C)[C@@H]3OC(=O)C(C)CC)O[C@@H]1C` (some centres undefined) [SCAMMONIN 1], in the assay with Ileum [3], the outcome was Active. Also, in the assay with Ileum [4], the Emax (usually the maximal effect, on the per cent scale that the assay sets) at 250 µg/mL worked out at 55.1%. Moreover, the Activity in the assay on Mus musculus [5] is on record as 100%. Moreover, the outcome in the assay with Mus musculus [6] was inactive.
Turning to `CCCCCC1CCCCCCCCCC(=O)O[C@@H]2[C@@H](O[C@@H]3O[C@H](C)[C@@H](O)[C@H](O)[C@H]3O)[C@H](C)O[C@@H](O[C@H]3[C@H](O[C@H]4[C@H](O1)O[C@H](C)[C@@H](O)[C@@H]4O)O[C@H](CO)[C@@H](O)[C@@H]3O)[C@@H]2OC(=O)C(C)CC` (some centres undefined) [SCAMMONIN 2], the Activity in the assay with Mus musculus [5] is given as 66%. Moreover, the outcome in the assay on Mus musculus [6] was inactive.
Consider `CCCCCC1CCCCCCCCCC(=O)O[C@@H]2[C@@H](O[C@@H]3O[C@H](C)[C@@H](OC(=O)C(C)CC)[C@H](O)[C@H]3O)[C@H](C)O[C@@H](O[C@H]3[C@H](O[C@H]4[C@H](O1)O[C@H](C)[C@@H](O)[C@@H]4O)O[C@H](CO)[C@@H](O)[C@@H]3O)[C@@H]2OC(=O)CCC` (some centres undefined) [TYRIANTHIN 6], for which the outcome with Ileum [3] and with Mus musculus [8] was Active. Further, the Emax at 250 µg/mL in the assay on Ileum [4] was 59.1%. The Activity in the assay on Mus musculus [7] was 33.33%; with Mus musculus [5] it was 88%. Besides, the outcome in the assay on Mus musculus [6] was inactive.
